Results: paper PMC10485906, “Development of a Dihydroquinoline–Pyrazoline GluN2C/2D-Selective Negative Allosteric Modulator of the N-Methyl-D-aspartate Receptor” (ACS Chemical Neuroscience, 2023)
Read-outs that look alike come from different tables or passages of the source.

What was measured:
[1] = biological target: GluN1/GluN2D (Rattus norvegicus, UniProt Q62645); assay: Whole-cell voltage-clamp recordings, HEK cells, GluN1/GluN2D (agonist dependence); format: cell-based
Text: (§1) We previously described the actions of the GluN2C/GluN2D-preferring negative allosteric modulator DQP-1105 as dependent on glutamate (but not glycine) binding, in that DQP-1105 affinity increases after GluN1/GluN2D NMDARs bind glutamate.[32] […] The concentration-dependent relaxation is indicative of an agonist-induced increase in potency that leads to re-equilibration of the inhibitor after agonist binding induces an increase in inhibitor affinity. We investigated the glutamate dependence of compound 2i (GluN1/GluN2D, Figure 4; GluN1/GluN2C, Figure S2), DQP-1105 (Figure S1), and compound (S)-2a (DQP-69;[33]Figure S3) using the same protocols.
(§2) We preincubated cells with glycine and the inhibitor 2i (DQP-997-74) and compared inhibitor potency during the peak and steady-state current responses to glutamate application. […] To investigate the time course of 2i inhibition, we fitted the relaxation of the current response with a single exponential function. If the current response time course reflects 2i binding, then the reciprocal of τinhibition should be linearly related to its concentration, with the slope equal to kON and intercept equal to kOFF. […] The deactivation of GluN1/GluN2D receptors (5.3 ± 0.2 s) was slowed by the presence of compound 2i when applied at concentrations of 0.1 μM (7.3 ± 0.3 s; p = 0.017) and 0.3 μM (10.5 ± 1.0 s; p = 0.002) but not at 0.03 μM (5.6 ± 0.3 s; p = 0.518; Figure 4E). […] This phenomenon was previously discovered for QNZ-46, a glutamate-dependent GluN2C/2D-selective inhibitor with a different structural core.[42] As proposed in that study, the prolonged deactivation may indicate that 2i slows a conformational change necessary for glutamate unbinding or 2i may need to unbind before glutamate can unbind.
(§3) In addition, we evaluated how glutamate dependence affects inhibition of responses to brief agonist applications similar to phasic glutamate release that occurs at synapses. To do so, we preincubated cells expressing GluN1/GluN2D receptors with the inhibitor 2i and then applied trains of five brief pulses of NMDA (which dissociates more rapidly than glutamate) and glycine from a pressurized micropipette to mimic repetitive synaptic transmission (Figure 4F). We measured the peak amplitude and compared the concentration–response curves for the inhibition of the first and last response (Figure 4G). The initial train of pulses in the absence of drug controls for systematic errors such as internalization of receptors.
(§4) To further evaluate whether 2i followed the law of mass action, we coapplied different concentrations of 2i with glutamate during the steady-state glutamate and glycine responses of GluN1/GluN2D receptors expressed in HEK cells (Figure 4H). […] We also fitted the onset and offset time course of the inhibition produced by compound 2i with a single exponential function (Figure 4J).
(§5) HEK293 cells (HEK, ATCC CRL-1573) were plated on glass coverslips pretreated with 0.1 mg/mL poly-D-lysine and cultured in Dulbecco’s modified Eagle medium (DMEM) plus Glutamax (GIBCO 10569-10) supplemented with 10% fetal bovine serum, 10 U/mL of penicillin, and 10 μg/mL of streptomycin at 37 °C and 5% CO2. The cells were transiently transfected with cDNA encoding rat GluN1, GluN2D, and eGFP at a ratio of 1:1:5 by using the calcium phosphate precipitation method.[48] After 24–48 h following the transfection, the cells were perfused with external recording solution that contained (in mM) 3 KCl, 150 NaCl, 0.01 EDTA, 1.0 CaCl2, 10 HEPES, and 22 D-mannitol (the pH was adjusted to 7.4 with NaOH). The patch electrodes (resistance 3–5 MΩ) were prepared from thin-walled glass micropipettes (TW150F-4, World Precision Instruments, Sarasota, FL) by a dual-stage glass micropipette puller (PC-10, Narishige, Tokyo, Japan) and filled with internal solution containing (in mM) 110 D-gluconate, 110 CsOH, 30 CsCl, 5 HEPES, 4 NaCl, 0.5 CaCl2, 2 MgCl2, 5 BAPTA, 2 NaATP, and 0.3 NaGTP. […]

[2] = biological target: GluN1/GluN2D (Rattus norvegicus, UniProt P35439+Q62645); assay: as above; format: cell-based; conditions: for Kd: from kON and kOFF
Sequence of GluN1/GluN2D (Rattus norvegicus, UniProt P35439+Q62645) (Q62645 28-1323, other chains not shown): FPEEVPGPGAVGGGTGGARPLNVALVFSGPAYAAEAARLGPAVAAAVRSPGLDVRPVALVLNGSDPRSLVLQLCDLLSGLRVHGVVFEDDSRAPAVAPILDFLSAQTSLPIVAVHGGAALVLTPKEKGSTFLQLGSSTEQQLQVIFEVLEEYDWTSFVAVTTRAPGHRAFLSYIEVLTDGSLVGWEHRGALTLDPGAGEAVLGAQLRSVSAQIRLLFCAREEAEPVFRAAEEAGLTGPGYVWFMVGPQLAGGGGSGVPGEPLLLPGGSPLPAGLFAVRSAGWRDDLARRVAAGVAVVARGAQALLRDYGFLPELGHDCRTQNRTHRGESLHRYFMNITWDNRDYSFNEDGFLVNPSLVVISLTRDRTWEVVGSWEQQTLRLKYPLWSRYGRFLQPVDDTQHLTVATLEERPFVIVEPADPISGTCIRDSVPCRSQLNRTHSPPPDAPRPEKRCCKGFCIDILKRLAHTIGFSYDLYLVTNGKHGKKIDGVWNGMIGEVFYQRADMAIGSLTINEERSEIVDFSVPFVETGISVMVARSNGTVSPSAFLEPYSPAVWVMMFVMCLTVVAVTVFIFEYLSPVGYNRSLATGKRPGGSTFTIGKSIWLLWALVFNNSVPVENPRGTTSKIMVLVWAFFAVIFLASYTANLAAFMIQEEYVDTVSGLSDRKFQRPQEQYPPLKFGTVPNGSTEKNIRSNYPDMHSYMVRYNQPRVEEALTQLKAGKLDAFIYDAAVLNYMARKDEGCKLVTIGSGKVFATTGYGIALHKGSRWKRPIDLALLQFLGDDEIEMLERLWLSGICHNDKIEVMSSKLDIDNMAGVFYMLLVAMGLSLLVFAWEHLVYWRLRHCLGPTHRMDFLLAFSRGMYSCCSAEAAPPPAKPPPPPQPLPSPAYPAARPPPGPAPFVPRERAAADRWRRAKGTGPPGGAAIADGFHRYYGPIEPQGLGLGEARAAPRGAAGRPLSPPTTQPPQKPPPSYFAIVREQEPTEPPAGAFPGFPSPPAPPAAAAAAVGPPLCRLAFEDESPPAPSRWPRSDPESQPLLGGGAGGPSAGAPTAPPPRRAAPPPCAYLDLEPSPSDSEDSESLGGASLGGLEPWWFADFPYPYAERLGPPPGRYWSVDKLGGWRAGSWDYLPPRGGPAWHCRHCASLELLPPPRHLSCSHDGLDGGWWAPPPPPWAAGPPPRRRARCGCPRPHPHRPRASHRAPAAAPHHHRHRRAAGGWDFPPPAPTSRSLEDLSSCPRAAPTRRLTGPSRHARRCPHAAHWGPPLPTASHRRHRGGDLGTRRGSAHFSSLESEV
Text: as §1, §2, §3, §4, §5

[3] = HEK293, coapplication with glutamate
[4] = HEK293, inhibitor preapplied, linear regression of 1/τinhibition vs concentration

Sequence of GluN1/GluN2D (Rattus norvegicus, UniProt Q62645) (Q62645 28-1323, other chains not shown): as above

τdeactivation following glutamate removal ([1]; 0.03 μM compound, mean ± SEM): 5.6 ± 0.3 s
τdeactivation following glutamate removal ([1]; 0.1 μM compound, mean ± SEM): 7.3 ± 0.3 s
τdeactivation following glutamate removal ([1]; 0.3 μM compound, mean ± SEM): 10.5 ± 1.0 s
Hill slope ([1]; coapplication with glutamate): 0.93
fold-change in IC50 for the peak and steady-state current responses ([1]; mean ± SEM, compared by ANOVA): 3.0 ± 0.3
IC50 fold higher during peak compared to steady-state ([1]; ratio of IC50 values): 3 fold
IC50 fold higher at first pulse compared to fifth pulse ([1]; trains of brief agonist applications): 1.9 fold
koff [2, 3]: 0.05 s⁻¹
kon [2, 3]: 210000 M⁻¹ s⁻¹
koff [2, 4]: 0.17 s⁻¹
kon [2, 4]: 400000 M⁻¹ s⁻¹
Kd ([2]; coapplication with glutamate): 240 nM
IC50 ([2]; compound coapplied with glutamate during steady-state response, read-out: IC50 steady-state inhibition, coapplication): 100 nM
IC50 ([2]; fifth of 5 brief NMDA (500 μM)/glycine (250 μM) pulses at 1 s intervals, read-out: IC50 pulse 5 (95% CI)): 400 nM
IC50 ([2]; first of 5 brief NMDA (500 μM)/glycine (250 μM) pulses at 1 s intervals, read-out: IC50 pulse 1 (95% CI)): 750 nM
Kd ([2]; inhibitor preapplied): 430 nM
IC50 ([2]; peak current response to glutamate, inhibitor preapplied, read-out: IC50 peak (95% CI)): 230 nM
IC50 ([2]; steady-state current response to glutamate, inhibitor preapplied, read-out: IC50 steady-state (95% CI)): 80 nM
Compound: O=C(O)CC(F)(F)C(=O)N1N=C(c2c(-c3ccc(Cl)cc3)c3ccccc3[nH]c2=O)CC1c1ccc(Cl)cc1 (stereo not drawn) [2i]
